Patent publication US8697744B2, “Substituted 5,6-dihydro-4H-thiazolo[4,5-E]indazoles and their use as positive allosteric modulators of metabotropic glutamate receptors” (Addex Pharma S.A., priority 2009, dated 2014)

Legend:
[1] = biological target: T1, recombinant human mGluR4a receptors (Homo sapiens, UniProt Q14833); assay: mGluR4 assay on HEK-expressing human mGluR4: fluorescent cell based Ca2+ mobilization assay (FLIPR); conditions: HEK-293 cells expressing hmGluR4; enhancement of EC25 glutamate response; mean of at least three independent experiments in duplicate; read-out: Ca^2+ Flux (mean EC50)
T1 construct: expressed in transfected cells
From the text: mGluR4 Assay on HEK-Expressing Human mGluR4
The compounds of the present invention are positive allosteric modulators of mGluR4 receptor. Their activity was examined on recombinant human mGluR4a receptors by detecting changes in intracellular Ca^2+ concentration, using the fluorescent Ca^2+-sensitive dye Fluo-4-(AM) and a Fluorometric Imaging Plate Reader (FLIPR, Molecular Devices, Sunnyvale, Calif.).
The cDNA encoding the human metabotropic glutamate receptor (hmGluR4), (accession number NM_000841.1, NCBI Nucleotide database browser), was subcloned into an expression vector containing also the hygromycin resistance gene. In parallel, the cDNA encoding a G protein allowing redirection of the activation signal to intracellular calcium flux was subcloned into a different expression vector containing also the puromycin resistance gene. Transfection of both these vectors into HEK293 cells with PolyFect reagent (Qiagen) according to supplier's protocol, and hygromycin and puromycin treatment allowed selection of antibiotic resistant cells which had integrated stably one or more copies of the plasmids. Positive cellular clones expressing hmGluR4 were identified in a functional assay measuring changes in calcium fluxes in response to glutamate or selective known mGluR4 orthosteric agonists and antagonists. HEK-293 cells expressing hmGluR4 were maintained in media containing DMEM, dialyzed Fetal Calf Serum (10%), Glutamax™ (2 mM), Penicillin (100 units/mL), Streptomycin (100 μg/mL), Geneticin (100 μg/mL) and Hygromycin-B (40 μg/mL) and puromycin (1 μg/mL) at 37° C./5% CO2.
Human mGluR4HEK-293 cells were plated out 24 hours prior to FLIPR^384 assay in black-walled, clear-bottomed, poly-L-ornithine-coated 384-well plates at a density of 25,000 cells/well in a glutamine/glutamate free DMEM medium containing foetal bovine serum (10%), penicillin (100 units/mL) and streptomycin (100 μg/mL) at 37° C./5% CO2.
On the day of the assay, the medium was aspirated and the cells were loaded with a 3 μM solution of Fluo-4-AM (LuBioScience, Lucerne, Switzerland) in 0.03% pluronic acid. After 1 hour at 37° C./5% CO2, the non incorporated dye was removed by washing cell plate with the assay buffer and the cells were left in the dark at room temperature for […] before testing. All assays were performed in a pH 7.4 buffered-solution containing 20 mM HEPES, 143 mM NaCl, 6 mM KCl, 1 mM MgSO4, 1 mM CaCl2, 0.125 mM sulfapyrazone and 0.1% glucose.
After 10 s of basal fluorescence recording, various concentrations of the compounds of the invention were added to the cells. Changes in fluorescence levels were first monitored for 180 s in order to detect any agonist activity of the compounds. Then the cells were stimulated by an EC25 glutamate concentration for an additional 110 s in order to measure enhancing activities of the compounds of the invention. EC25 glutamate concentration is the concentration giving 25% of the maximal glutamate response.
The concentration-response curves of representative compounds of the present invention were generated using the Prism GraphPad software (Graph Pad Inc, San Diego, USA). The curves were fitted to a four-parameter logistic equation: (Y=Bottom+(Top−Bottom)/(1+10^((LogEC50−X)*Hill Slope) allowing the determination of EC50 values.
The Table 3 below represents the mean EC50 obtained from at least three independent experiments of selected molecules performed in duplicate.

T1 sequence (Q14833 33-912): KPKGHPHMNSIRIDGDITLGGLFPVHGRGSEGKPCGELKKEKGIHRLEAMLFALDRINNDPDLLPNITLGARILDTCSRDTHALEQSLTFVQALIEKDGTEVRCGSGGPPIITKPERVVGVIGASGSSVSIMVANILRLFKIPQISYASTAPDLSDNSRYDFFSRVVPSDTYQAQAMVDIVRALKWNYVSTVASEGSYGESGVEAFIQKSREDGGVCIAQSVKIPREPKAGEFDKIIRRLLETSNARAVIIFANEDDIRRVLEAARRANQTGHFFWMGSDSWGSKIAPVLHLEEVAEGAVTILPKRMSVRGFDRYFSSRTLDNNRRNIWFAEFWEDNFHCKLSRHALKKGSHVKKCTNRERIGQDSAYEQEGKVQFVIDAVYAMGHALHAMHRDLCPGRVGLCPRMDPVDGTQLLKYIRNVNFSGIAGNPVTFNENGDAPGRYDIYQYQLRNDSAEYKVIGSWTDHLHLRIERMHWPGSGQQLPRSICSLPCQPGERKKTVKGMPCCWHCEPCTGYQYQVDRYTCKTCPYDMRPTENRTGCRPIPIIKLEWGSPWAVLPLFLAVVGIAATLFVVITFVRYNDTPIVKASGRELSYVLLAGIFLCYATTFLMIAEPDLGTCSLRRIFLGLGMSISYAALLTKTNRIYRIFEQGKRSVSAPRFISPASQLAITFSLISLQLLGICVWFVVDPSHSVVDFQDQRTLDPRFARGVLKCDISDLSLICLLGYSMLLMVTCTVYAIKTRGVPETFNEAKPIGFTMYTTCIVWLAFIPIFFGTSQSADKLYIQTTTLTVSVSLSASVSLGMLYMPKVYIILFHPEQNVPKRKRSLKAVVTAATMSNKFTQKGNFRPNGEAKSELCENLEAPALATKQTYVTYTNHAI

Row | SMILES | melting point | EC50 [1] [nM]
1 | c1cnc(Nc2nc3c(s2)CCc2[nH]ncc2-3)cn1 [Compound 1-17, N-(Pyrazin-2-yl)-5,6-dihydro-4H-thiazolo[4,5-e]indazol-2-amine] | > 330 °C | –
2 | Cc1cccc(Nc2nc3c(s2)CCCc2[nH]ncc2-3)n1 [Compound 1-11, (6-Methyl-pyridin-2-yl)-(4,5,6,7-tetrahydro-3-thia-1,7,8-triaza-cyclopenta[e]azulen-2-yl)-amine] | 312 °C (dec.) | –
3 | c1cnc(Nc2nc3c(s2)CCCc2[nH]ncc2-3)nc1 [Compound 1-25, Pyrimidin-2-yl-(4,5,6,7-tetrahydro-3-thia-1,7,8-triaza-cyclopenta[e]azulen-2-yl)-amine] | 310 °C (dec.) | –
4 | c1n[nH]c2c1-c1nc(NC3CCCC3)sc1CC2 [Compound 1-18, N-Cyclopentyl-5,6-dihydro-4H-thiazolo[4,5-e]indazol-2-amine] | 166 to 168 °C | –
5 | Clc1cccc(Nc2nc3c(s2)CCCc2[nH]ncc2-3)n1 [Compound 1-16, (6-Chloro-pyridin-2-yl)-(4,5,6,7-tetrahydro-3-thia-1,7,8-triaza-cyclopenta[e]azulen-2-yl)-amine] | 314 °C (dec.) | –
6 | Cc1ccnc(Nc2nc3c(s2)CCCc2[nH]ncc2-3)n1 [Compound 1-30, (4-Methyl-pyrimidin-2-yl)-(4,5,6,7-tetrahydro-3-thia-1,7,8-triaza-cyclopenta[e]azulen-2-yl)-amine] | 297 °C (dec.) | –
7 | Clc1cccc(Nc2nc3c(s2)CCc2[nH]ncc2-3)n1 [Compound 1-4, N-(6-Chloropyridin-2-yl)-5,6-dihydro-4H-thiazolo[4,5-e]indazol-2-amine] | > 300 °C | –
8 | Fc1ccc(Nc2nc3c(s2)CCc2[nH]ncc2-3)nc1 [Compound 1-15, N-(5-Fluoropyridin-2-yl)-5,6-dihydro-4H-thiazolo[4,5-e]indazol-2-amine] | 315 °C (dec.) | –
9 | c1n[nH]c2c1-c1nc(NC3CC3)sc1CCC2 [Compound 1-22, Cyclopropyl-(4,5,6,7-tetrahydro-3-thia-1,7,8-triaza-cyclopenta[e]azulen-2-yl)-amine] | 178 to 182 °C | –
10 | CC1Cc2[nH]ncc2-c2nc(Nc3ncccn3)sc21 (centres unmarked) [Compound 1-33, 4-Methyl-N-(pyrimidin-2-yl)-5,6-dihydro-4H-thiazolo[4,5-e]indazol-2-amine] | > 373 °C | –
11 | Fc1ccc(Nc2nc3c(s2)CCCc2[nH]ncc2-3)nc1 [Compound 1-12, (5-Fluoro-pyridin-2-yl)-(4,5,6,7-tetrahydro-3-thia-1,7,8-triaza-cyclopenta[e]azulen-2-yl)-amine] | 314 °C (dec.) | –
12 | CC(C)C(=O)n1ncc2c1CCc1sc(Nc3ccccn3)nc1-2 [Compound 1-2, 2-Methyl-1-(2-(pyridin-2-ylamino)-4H-thiazolo[4,5-e]indazol-6(5H)-yl)propan-1-one] | 167 to 168 °C | –
13 | Fc1cccc(Nc2nc3c(s2)CCCc2[nH]ncc2-3)n1 | 314 °C (dec.) | –
14 | c1n[nH]c2c1-c1nc(NC3CCCC3)sc1CCC2 [Compound 1-24, Cyclopentyl-(4,5,6,7-tetrahydro-3-thia-1,7,8-triaza-cyclopenta[e]azulen-2-yl)-amine] | 248 °C (dec.) | –
15 | c1n[nH]c2c1-c1nc(NC3CCC3)sc1CCC2 [Compound 1-23, Cyclobutyl-(4,5,6,7-tetrahydro-3-thia-1,7,8-triaza-cyclopenta[e]azulen-2-yl)-amine] | 198 to 221 °C | –
16 | COc1cccc(Nc2nc3c(s2)CCCc2[nH]ncc2-3)n1 [Compound 1-14, (6-Methoxy-pyridin-2-yl)-(4,5,6,7-tetrahydro-3-thia-1,7,8-triaza-cyclopenta[e]azulen-2-yl)-amine] | 300 °C (dec.) | 1000 to 10000
17 | CCC1Cc2[nH]ncc2-c2nc(Nc3ccccn3)sc21 (centres unmarked) [Compound 1-9, 4-Ethyl-N-(pyridin-2-yl)-5,6-dihydro-4H-thiazolo[4,5-e]indazol-2-amine] | 317 to 319 °C | –
18 | c1cnc(Nc2nc3c(s2)CCc2[nH]ncc2-3)nc1 [Compound 1-26, N-(Pyrimidin-2-yl)-5,6-dihydro-4H-thiazolo[4,5-e]indazol-2-amine] | 281 to 282 °C | –
19 | Fc1ccc(F)c(Nc2nc3c(s2)CCc2[nH]ncc2-3)c1 [Compound 1-5, N-(2,5-Difluorophenyl)-5,6-dihydro-4H-thiazolo[4,5-e]indazol-2-amine] | 270 °C (dec.) | 100 to 1000
20 | Cn1ccc(Nc2nc3c(s2)CCCc2[nH]ncc2-3)n1 [Compound 1-27, (1-Methyl-1H-pyrazol-3-yl)-(4,5,6,7-tetrahydro-3-thia-1,7,8-triaza-cyclopenta[e]azulen-2-yl)-amine] | 288 to 293 °C | –
21 | Cc1ccnc(Nc2nc3c(s2)CCc2[nH]ncc2-3)n1 [Compound 1-29, N-(4-Methylpyrimidin-2-yl)-5,6-dihydro-4H-thiazolo[4,5-e]indazol-2-amine] | 283 °C (dec.) | –
22 | Fc1cccnc1Nc1nc2c(s1)CCc1[nH]ncc1-2 [Compound 1-10, N-(3-Fluoropyridin-2-yl)-5,6-dihydro-4H-thiazolo[4,5-e]indazol-2-amine] | 300 °C (dec.) | –
23 | CC1(C)Cc2[nH]ncc2-c2nc(Nc3ncccn3)sc21 [Compound 1-32, 4,4-Dimethyl-N-(pyrimidin-2-yl)-5,6-dihydro-4H-thiazolo[4,5-e]indazol-2-amine] | 298 to 306 °C | –
24 | Fc1cccnc1Nc1nc2c(s1)CCCc1[nH]ncc1-2 [Compound 1-13, (3-Fluoro-pyridin-2-yl)-(4,5,6,7-tetrahydro-3-thia-1,7,8-triaza-cyclopenta[e]azulen-2-yl)-amine] | 300 °C (dec.) | < 100
25 | c1n[nH]c2c1-c1nc(NC3CCC3)sc1CC2 [Compound 1-20, N-Cyclobutyl-5,6-dihydro-4H-thiazolo[4,5-e]indazol-2-amine] | 144 to 146 °C | –
26 | Fc1cccc(Nc2nc3c(s2)CCc2[nH]ncc2-3)n1 [Compound 1-6, N-(6-Fluoropyridin-2-yl)-5,6-dihydro-4H-thiazolo[4,5-e]indazol-2-amine] | > 300 °C | 100 to 1000
27 | Cc1cccc(Nc2nc3c(s2)CCc2[nH]ncc2-3)n1 [Compound 1-3, N-(6-Methylpyridin-2-yl)-5,6-dihydro-4H-thiazolo[4,5-e]indazol-2-amine] | 280 °C | 100 to 1000
28 | c1ccc(Nc2nc3c(s2)CCc2[nH]ncc2-3)nc1 [Compound 1-1, N-(Pyridin-2-yl)-5,6-dihydro-4H-thiazolo[4,5-e]indazol-2-amine] | 297 to 299 °C | < 100
29 | c1ccc(Nc2nc3c(s2)CCCc2[nH]ncc2-3)nc1 [Compound 1-8, Pyridin-2-yl-(4,5,6,7-tetrahydro-3-thia-1,7,8-triaza-cyclopenta[e]azulen-2-yl)-amine] | – | < 100
